Results from US8145430B2, “Predictive scoring function for estimating binding affinity” (Schrodinger, LLC, priority 2005, dated 2012).
Read-outs that look alike come from different tables or passages of the source.

Assays:
[1] = test system: protein-ligand complexes in the PDB; details: experimental binding affinity, cited from earlier work
[2] = test system: Glur2 receptors; details: series of Glur2 receptors; cited from earlier work
[3] = biological target: Streptavidin (Streptomyces avidinii, UniProt P22629); assay: Calculated versus experimental binding affinity, streptavidin and biotin (pdb 1stp), docked structure; details: using a docked structure
Excerpt: FIG. 8 illustrates Streptavidin in biotin (pdb 1stp). Both special hydrogen bonds in this complex, and hydrophobic enclosure of the hydrogen bonding region, are shown.
Here three correlated hydrogen bonds occur in a hydrophobically enclosed region. Up to the present time, no empirical scoring function has explained the exceptionally large binding affinity of streptavidin in biotin. Once the triple, enclosed hydrogen bonding motif is recognized and assigned an appropriate score, the deviation between calculated and experimental binding affinity, using a docked structure, is only 1.5 kcal/mole.

[4] = biological target: aldose reductase (Homo sapiens, UniProt P15121); details: lef3 structure of aldose reductase; cited from earlier work
[5] = column beside SP Score (repeat)

Chain of Streptavidin (P22629 25-183): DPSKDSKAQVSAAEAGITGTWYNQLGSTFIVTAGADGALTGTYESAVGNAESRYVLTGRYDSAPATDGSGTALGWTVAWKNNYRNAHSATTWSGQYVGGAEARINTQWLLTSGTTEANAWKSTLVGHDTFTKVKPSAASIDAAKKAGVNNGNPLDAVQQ

## Nc1c2c(nc3ccccc13)CCCC2 [1acj]
[1]; [5]
  ΔG_exp: -10 kcal/mol
[1]; column beside XP Score
  ΔG_exp: -10 kcal/mol

## CNC(=O)C(F)(F)C(O)(O)[C@H](CC(C)C)NC(=O)[C@@H](NC(=O)[C@@H](NC(=O)CC(C)C)C(C)C)C(C)C [1apv]
[1]; [5]
  ΔG_exp: -11.3 kcal/mol
[1]; column beside XP Score
  ΔG_exp: -11.3 kcal/mol

## N=C(N)c1ccccc1 [1bra]
[1]; [5]
  ΔG_exp: -2.5 kcal/mol
[1]; column beside XP Score
  ΔG_exp: -2.5 kcal/mol

## CC(C)c1ccc(NC(=O)[C@H](Cc2ccccc2)NC(=O)[C@H](CCCCN)NC(=O)C(F)(F)F)cc1 [1elc]
[1]; [5]
  ΔG_exp: -9.8 kcal/mol
[1]; column beside XP Score
  ΔG_exp: -9.8 kcal/mol

## CC(=O)N[C@H](C(=O)N[C@@H](Cc1ccccc1)[C@@H](O)CN(CC1CCCCC1)NC(=O)[C@@H](NC(C)=O)C(C)C)C(C)C [1hih]
[1]; [5]
  ΔG_exp: -11.3 kcal/mol
[1]; column beside XP Score
  ΔG_exp: -11.3 kcal/mol

## CC1(C)S[C@H]([C@H](NC(=O)Cc2ccccc2)C(=O)NCc2ccccc2)N[C@H]1C(=O)N[C@@H](CO)Cc1ccccc1 [1htf]
[1]; [5]
  ΔG_exp: -11.1 kcal/mol
[1]; column beside XP Score
  ΔG_exp: -11.1 kcal/mol

## CC(=O)N[C@H]1[C@H]([C@H](O)[C@H](O)CO)OC(C(=O)O)=C[C@@H]1O [1nnb]
[1]; [5]
  ΔG_exp: -7.2 kcal/mol
[1]; column beside XP Score
  ΔG_exp: -7.2 kcal/mol

## O=C(O)[C@H](O)[C@@H](O)[C@H](O)[C@H](O)COP(=O)(O)O [1pgp]
[1]; [5]
  ΔG_exp: -7.8 kcal/mol
[1]; column beside XP Score
  ΔG_exp: -7.8 kcal/mol

## Cc1ccc(S(=O)(=O)N[C@@H](Cc2cccc(C(=N)N)c2)C(=O)N2CCCCC2)cc1 [1pph]
[1]; [5]
  ΔG_exp: -8.5 kcal/mol
[1]; column beside XP Score
  ΔG_exp: -8.5 kcal/mol

## COC(=O)[C@H](Cc1ccccc1)OP(=O)(O)[C@H](CC(C)C)NC(=O)[C@@H](NC(=O)[C@@H](NC(=O)CC(C)C)C(C)C)C(C)C [1ppl]
[1]; [5]
  ΔG_exp: -11.5 kcal/mol
[1]; column beside XP Score
  ΔG_exp: -11.5 kcal/mol

## CC(C)C[C@H](N[C@@H](CCc1ccccc1)C(=O)O)C(=O)N[C@@H](Cc1c[nH]c2ccccc12)C(=O)O [1tmn]
[1]; [5]
  ΔG_exp: -10 kcal/mol
[1]; column beside XP Score
  ΔG_exp: -10 kcal/mol

## NCC1CCCCC1 [1tng]
[1]; [5]
  ΔG_exp: -4 kcal/mol
[1]; column beside XP Score
  ΔG_exp: -4 kcal/mol

## NCCCCc1ccccc1 [1tni]
[1]; [5]
  ΔG_exp: -2.3 kcal/mol
[1]; column beside XP Score
  ΔG_exp: -2.3 kcal/mol

## CC12CCC(CC1=O)C2(C)C (centres unmarked) [2cpp]
[1]; [5]
  ΔG_exp: -8.3 kcal/mol
[1]; column beside XP Score
  ΔG_exp: -8.3 kcal/mol

## O=C(O)[C@@H](O)Cc1ccccc1 [2ctc]
[1]; [5]
  ΔG_exp: -5.3 kcal/mol
[1]; column beside XP Score
  ΔG_exp: -5.3 kcal/mol

## CN(Cc1cnc2nc(N)nc(N)c2n1)c1ccc(C(=O)N[C@@H](CCC(=O)O)C(=O)O)cc1 [4dfr]
[1]; [5]
  ΔG_exp: -13.2 kcal/mol
[1]; column beside XP Score
  ΔG_exp: -13.2 kcal/mol

## O=C(N[C@H]1c2ccccc2C[C@H]1O)[C@H](Cc1ccccc1)CC(O)C[C@@H](Cc1ccccc1)C(=O)N[C@H]1c2ccccc2C[C@H]1O [4phv]
[1]; [5]
  ΔG_exp: -12.5 kcal/mol
[1]; column beside XP Score
  ΔG_exp: -12.5 kcal/mol

## CC(C)C[C@H](N)C(=O)NO [4tln]
[1]; [5]
  ΔG_exp: -5.1 kcal/mol
[1]; column beside XP Score
  ΔG_exp: -5.1 kcal/mol

## C[C@H]1O[C@H](O)[C@H](O)[C@@H](O)[C@H]1O [7abp]
[1]; [5]
  ΔG_exp: -8.1 kcal/mol
[1]; column beside XP Score
  ΔG_exp: -8.1 kcal/mol

## N[C@@H](CCC(=O)O)C(=O)O [Ligand 1ftj]
[2]
  ΔG (experimental binding energies): 8.5 kcal/mol

## O=c1[nH]c2cc([N+](=O)[O-])c([N+](=O)[O-])cc2[nH]c1=O [Ligand 1ftl]
[2]
  ΔG (experimental binding energies): 8.3 kcal/mol

## Cc1o[nH]c(=O)c1C[C@H](N)C(=O)O [Ligand 1ftm]
[2]
  ΔG (experimental binding energies): 8.8 kcal/mol

## N[C@@H](Cn1cc(F)c(=O)[nH]c1=O)C(=O)O [Ligand 1mqi]
[2]
  ΔG (experimental binding energies): 11.9 kcal/mol

## O=C(O)CCCC[C@@H]1SC[C@@H]2NC(=O)N[C@@H]21 [biotin]
[3]
  deviation between calculated and experimental binding affinity: 1.5 kcal/mol

## NC(=O)[C@@H]1C[C@]2(NC(=O)NC2=O)c2cc(F)ccc2O1 [fiderestat]
[4]
  binding affinity experimentally: low nanomolar
